Assay results taken from the NIST ThermoML archive (doi:10.1021/acs.jced.5b00654).
Where “and” joins values, the source holds several entries; their conditions need not be identical. Identical values can stand only once.

Settings: Fluid (supercritical or subcritical phases); for mass density: Buoyancy - hydrostatic balance with magnetic suspension - one sinker; for viscosity: Vibrating wire viscometry

CCCC [butane]
Settings	mass density [kg/m3]	viscosity
428.2 K, 3793.8 kPa	137.58	0.01557 mPa·s
428.2 K, 4030 kPa	274.89	0.02934 mPa·s
428.2 K, 4030.1 kPa	274.9	0.02934 mPa·s
428.2 K, 22973 kPa	480.02	0.08495 mPa·s
428.21 K, 1539.8 kPa	29.634	0.01094 mPa·s
428.21 K, 1540.1 kPa	29.642	0.01093 mPa·s
428.21 K, 22974 kPa	480.02	0.08503 mPa·s and 0.08492 mPa·s
428.22 K, 3107.8 kPa	80.455	0.01252 mPa·s
428.23 K, 3108.6 kPa	80.486	0.01253 mPa·s
428.34 K, 3805.1 kPa	138.83	0.01567 mPa·s
428.39 K, 3806.5 kPa	138.8	0.01569 mPa·s
448.09 K, 4846.2 kPa	174.16	0.01886 mPa·s
448.11 K, 5054.5 kPa	201.47	0.02122 mPa·s
448.11 K, 5054.8 kPa	201.47	0.02124 mPa·s
448.11 K, 6144.8 kPa	304.18	0.0341 mPa·s
448.11 K, 6145 kPa	304.17	0.0341 mPa·s
448.13 K, 4161.6 kPa	114.81	0.01481 mPa·s and 0.01479 mPa·s
448.13 K, 4847 kPa	174.1	0.01885 mPa·s
448.13 K, 5203.2 kPa	222.02	0.02331 mPa·s
448.13 K, 5203.5 kPa	222.03	0.02333 mPa·s
448.13 K, 7189.8 kPa	340.36	0.04055 mPa·s
448.14 K, 7191 kPa	340.37	0.04061 mPa·s
448.14 K, 18184 kPa	440.74	0.06811 mPa·s
448.14 K, 18187 kPa	440.74	0.06813 mPa·s
448.14 K, 29460 kPa	478.91	0.08497 mPa·s
448.15 K, 220.17 kPa	3.4915	0.01102 mPa·s
448.15 K, 618.43 kPa	10.135	0.0111 mPa·s
448.15 K, 618.6 kPa	10.141	0.01109 mPa·s
448.15 K, 807.6 kPa	13.453	0.01114 mPa·s
448.15 K, 1661.9 kPa	30.078	0.01146 mPa·s
448.15 K, 3073.3 kPa	66.943	0.01257 mPa·s
448.15 K, 5551.9 kPa	263.05	0.02811 mPa·s
448.15 K, 5553.7 kPa	263.02	0.02811 mPa·s
448.15 K, 11528 kPa	400.23	0.05478 mPa·s
448.15 K, 11529 kPa	400.23	0.05477 mPa·s
448.15 K, 14319 kPa	420.46	0.06101 mPa·s
448.15 K, 29472 kPa	478.91	0.08489 mPa·s
448.16 K, 220.38 kPa	3.4965	0.01101 mPa·s
448.16 K, 430.17 kPa	6.9362	0.01106 mPa·s
448.16 K, 431.02 kPa	6.95	0.01106 mPa·s
448.16 K, 508.5 kPa	8.2591	0.01107 mPa·s
448.16 K, 509.69 kPa	8.28	0.01107 mPa·s
448.16 K, 807.76 kPa	13.456	0.01115 mPa·s
448.16 K, 1662.2 kPa	30.086	0.01146 mPa·s
448.16 K, 2073.7 kPa	39.305	0.01169 mPa·s
448.16 K, 2511.8 kPa	50.321	0.01201 mPa·s
448.16 K, 2512.1 kPa	50.329	0.012 mPa·s
448.16 K, 3073.3 kPa	66.941	0.01257 mPa·s
448.16 K, 6551.1 kPa	321.12	0.03695 mPa·s
448.16 K, 6551.4 kPa	321.12	0.03694 mPa·s
448.16 K, 8139.4 kPa	359.98	0.04474 mPa·s
448.16 K, 8140.6 kPa	359.99	0.04466 mPa·s
448.16 K, 23152 kPa	460.08	0.07601 mPa·s
448.17 K, 1158.4 kPa	19.932	0.01125 mPa·s
448.17 K, 2073 kPa	39.287	0.01169 mPa·s
448.17 K, 4498.3 kPa	138.72	0.01627 mPa·s
448.17 K, 5346.6 kPa	240.34	0.02533 mPa·s
448.17 K, 9537.4 kPa	380.12	0.04948 mPa·s
448.17 K, 9538.6 kPa	380.13	0.0494 mPa·s
448.17 K, 14321 kPa	420.46	0.06093 mPa·s
448.17 K, 23154 kPa	460.09	0.07593 mPa·s
448.18 K, 3433.7 kPa	79.735	0.01307 mPa·s
448.18 K, 3433.9 kPa	79.739	0.01308 mPa·s
448.18 K, 3747.8 kPa	92.905	0.01367 mPa·s
448.18 K, 4498.1 kPa	138.68	0.01625 mPa·s
448.18 K, 5346.7 kPa	240.34	0.02534 mPa·s
448.19 K, 3747.9 kPa	92.91	0.01367 mPa·s
448.23 K, 4727 kPa	160.07	0.01777 mPa·s
448.23 K, 4727.1 kPa	160.07	0.01776 mPa·s
448.27 K, 5784.6 kPa	281.65	0.03063 mPa·s
448.28 K, 5785.1 kPa	281.66	0.03066 mPa·s
